Results from PubChem BioAssay (NCI).
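Grown in 96-well plates, cells were treated for 48 hours with each compound at five concentrations. Insufficient inhibition: endpoint recorded as highest concentration tested. Definition used: TGI = concentration required for complete inhibition of growth.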

Legend:
Assay in all cases: NCI tumour cell line growth inhibition, 48 h
786-0 renal = system: 786-0 renal
A498 renal = system: A498 renal
A549 NSCLC = system: A549 NSCLC
ACHN renal = system: ACHN renal
BT-549 breast = system: BT-549 breast
CAKI-1 renal = system: CAKI-1 renal
CCRF-CEM leukemia = system: CCRF-CEM leukemia
COLO 205 colon = system: COLO 205 colon
DU-145 prostate = system: DU-145 prostate
EKVX NSCLC = system: EKVX NSCLC
HCC-2998 colon = system: HCC-2998 colon
HCT-116 colon = system: HCT-116 colon
HCT-15 colon = system: HCT-15 colon
HOP-62 NSCLC = system: HOP-62 NSCLC
HOP-92 NSCLC = system: HOP-92 NSCLC
HS 578T breast = system: HS 578T breast
HT29 colon = system: HT29 colon
IGROV1 ovarian = system: IGROV1 ovarian
K-562 leukemia = system: K-562 leukemia
KM12 colon = system: KM12 colon
LOX IMVI melanoma = system: LOX IMVI melanoma
M14 melanoma = system: M14 melanoma
MALME-3M melanoma = system: MALME-3M melanoma
MCF7 breast = system: MCF7 breast
MDA-MB-231 breast = system: MDA-MB-231 breast
MDA-MB-435 = system: MDA-MB-435
MDA-N = system: MDA-N
MOLT-4 leukemia = system: MOLT-4 leukemia
NCI-H226 lung = system: NCI-H226 lung
NCI-H23 lung = system: NCI-H23 lung
NCI-H460 lung = system: NCI-H460 lung
NCI-H522 lung = system: NCI-H522 lung
NCI/ADR-RES ovarian = system: NCI/ADR-RES ovarian
OVCAR-3 ovarian = system: OVCAR-3 ovarian
OVCAR-4 ovarian = system: OVCAR-4 ovarian
OVCAR-5 ovarian = system: OVCAR-5 ovarian
OVCAR-8 ovarian = system: OVCAR-8 ovarian
PC-3 prostate = system: PC-3 prostate
RPMI-8226 leukemia = system: RPMI-8226 leukemia
SF-268 CNS = system: SF-268 CNS
SF-295 CNS = system: SF-295 CNS
SF-539 CNS = system: SF-539 CNS
SK-MEL-28 melanoma = system: SK-MEL-28 melanoma
SK-MEL-5 melanoma = system: SK-MEL-5 melanoma
SK-OV-3 ovarian = system: SK-OV-3 ovarian
SN12C renal = system: SN12C renal
SNB-19 CNS = system: SNB-19 CNS
SNB-75 CNS = system: SNB-75 CNS
SR leukemia = system: SR leukemia
SW-620 colon = system: SW-620 colon
T-47D breast = system: T-47D breast
TK-10 renal = system: TK-10 renal
U251 CNS = system: U251 CNS
UACC-257 melanoma = system: UACC-257 melanoma
UACC-62 melanoma = system: UACC-62 melanoma
UO-31 renal = system: UO-31 renal
HL-60(TB) leukemia = system: HL-60(TB) leukemia
RXF 393 renal = system: RXF 393 renal
SK-MEL-2 melanoma = system: SK-MEL-2 melanoma

Measured: TGI

CCOC1CN(C)C(=Nc2cccc3ccccc23)S1 (stereo not drawn)
> 10 µM: 786-0 renal | A498 renal | A549 NSCLC | ACHN renal | BT-549 breast | CAKI-1 renal | CCRF-CEM leukemia | COLO 205 colon | DU-145 prostate | EKVX NSCLC | HCC-2998 colon | HCT-116 colon | HCT-15 colon | HOP-62 NSCLC | HOP-92 NSCLC | HS 578T breast | HT29 colon | IGROV1 ovarian | K-562 leukemia | KM12 colon | LOX IMVI melanoma | M14 melanoma | MALME-3M melanoma | MCF7 breast | MDA-MB-231 breast | MDA-MB-435 | MDA-N | MOLT-4 leukemia | NCI-H226 lung | NCI-H23 lung | NCI-H460 lung | NCI-H522 lung | NCI/ADR-RES ovarian | OVCAR-3 ovarian | OVCAR-4 ovarian | OVCAR-5 ovarian | OVCAR-8 ovarian | PC-3 prostate | RPMI-8226 leukemia | SF-268 CNS | SF-295 CNS | SF-539 CNS | SK-MEL-28 melanoma | SK-MEL-5 melanoma | SK-OV-3 ovarian | SN12C renal | SNB-19 CNS | SNB-75 CNS | SR leukemia | SW-620 colon | T-47D breast | TK-10 renal | U251 CNS | UACC-257 melanoma | UACC-62 melanoma | UO-31 renal

C[C@]12CCC3c4ccc(O)cc4CC[C@H]3C1CC(=O)N(CCN1CCCC1)C2=O (stereo partly drawn)
> 10 µM: 786-0 renal | A498 renal | A549 NSCLC | ACHN renal | BT-549 breast | CAKI-1 renal | CCRF-CEM leukemia | COLO 205 colon | DU-145 prostate | EKVX NSCLC | HCC-2998 colon | HCT-116 colon | HCT-15 colon | HL-60(TB) leukemia | HOP-62 NSCLC | HS 578T breast | HT29 colon | IGROV1 ovarian | K-562 leukemia | KM12 colon | LOX IMVI melanoma | M14 melanoma | MALME-3M melanoma | MCF7 breast | MDA-MB-231 breast | MDA-MB-435 | MDA-N | MOLT-4 leukemia | NCI-H226 lung | NCI-H23 lung | NCI-H460 lung | NCI/ADR-RES ovarian | OVCAR-3 ovarian | OVCAR-4 ovarian | OVCAR-5 ovarian | OVCAR-8 ovarian | PC-3 prostate | RPMI-8226 leukemia | RXF 393 renal | SF-268 CNS | SF-295 CNS | SF-539 CNS | SK-MEL-2 melanoma | SK-MEL-28 melanoma | SK-MEL-5 melanoma | SK-OV-3 ovarian | SN12C renal | SNB-19 CNS | SNB-75 CNS | SR leukemia | SW-620 colon | T-47D breast | TK-10 renal | U251 CNS | UACC-257 melanoma | UACC-62 melanoma | UO-31 renal
